Literature values in patent US20120065267A1, “COMPOSITIONS INCLUDING 3,5-L-T2 AND METHODS OF USE THEREOF” (priority 2010, published 2012).
Where two headings read alike, the source gives them in different places.

Columns and labels:
[1] = tested on: hypercholesterolemic patients; settings: cited from earlier work
TR α1, β1 and β2 = settings: in vitro; cited from earlier work

N[C@H](Cc1cc(I)c(Oc2ccc(O)cc2)c(I)c1)C(=O)O [3,5-D-T2]
patients with coronary artery disease experiencing increased anginal symptoms ([1]; 300 mg daily for 8 months): 7 of 13
patients with coronary artery disease who died suddenly from presumed myocardial infarction ([1]; 300 mg daily for 8 months): 2 of the 13
decrease in total serum cholesterol ([1]; 300 mg daily, at 20 weeks): 20%
mean heart rate on treatment ([1]; 300 mg daily, increase from 76): 88 beats per minute
efficacy at lower doses ([1]; doses of less than 250 mg/day): ineffective
decrease in body weight ([1]; euthyroid subjects, 300 mg daily for 8 months): 5%
decrease in body weight ([1]; hypothyroid patients, 300 mg daily for 8 months): 8%

N[C@@H](Cc1cc(I)c(Oc2ccc(O)c(I)c2)c(I)c1)C(=O)O [T3, (2S)-2-amino-3-[4-(4-hydroxy-3-iodophenoxy)-3,5-diiodophenyl]propanoic acid]
binding affinity relative to that of T2 (TR α1, β1 and β2): 40-500 fold
